Data on two compounds can be found in paper PMC10386076, “Discovery of RC-752, a Novel Sigma-1 Receptor Antagonist with Antinociceptive Activity: A Promising Tool for Fighting Neuropathic Pain” (Pharmaceuticals, 2023).

Read-outs that look alike come from different tables or passages of the source.

One may read the Ki as a dissociation constant, usually derived from enzyme kinetics or from competition with a known ligand. A low value points to higher affinity. A word on the half-life: it is the time in which the quantity being followed falls by half. In general, ED50 refers to the dose that gives a 50% effect, or the effect in half of the subjects.

One data set concerns the target T1, S1R (Cavia porcellus, UniProt Q60492).
T1 construct: tissue Harlan-Winkelmann, Borchen, Germany; host or cells: guinea pig brain membrane homogenate
Kind of data set: S1R radioligand displacement binding assay ([3H]-(+)-pentazocine). Also noted: species or system guinea pig. As to conditions: for Selectivity (Ki S2R/Ki S1R): ratio Ki S2R/Ki S1R. The method, then: (R/S)-1a–3e were first evaluated for their binding affinity toward the S1R and S2R in a radioligand displacement assay. […] Nonspecific binding was determined using non-radiolabeled (+)-pentazocine and haloperidol in excess. All the binding experiments were carried out in duplicate. […] Haloperidol was used as a control compound in both assays.
Five guinea pig brains were homogenized with the potter (500–800 rpm, 10 up and down strokes) in 6 volumes of cold 0.32 M sucrose. The suspension was centrifuged at 1200× g for 10 min at 4 °C. […] This procedure was repeated twice. The final pellet was resuspended in 56 volumes of buffer and frozen ([…]) in 1.5 mL portions containing about 1.5 mg protein/mL.
The test compound solutions were prepared by dissolving approximately 10 µmol (usually 2–4 mg) of test compound in dimethyl sulfoxide (DMSO, unless otherwise specified), so that a 10 mM stock solution was obtained. To obtain the required test solutions for the assay, the DMSO stock solution was diluted with the respective assay buffer. The filtermats were presoaked in 0.5% aqueous polyethylenamine solution for 2 h at r.t. before use. All the binding experiments were carried out in duplicate in 96-well multiplates. The concentrations given are the final concentrations in the assay. […] The receptor preparation was always added last. During the incubation, the multiplates were shaken at a speed of 500–600 rpm at the specified temperature. […] During the filtration each well was washed five times with 300 µL of water. Subsequently, the filtermats were dried at 95 °C. The solid scintillator was melted on the dried filtermats at 95 °C for 5 min. After the solidifying of the scintillator at r.t., the trapped radioactivity in the filtermats was measured with the scintillation analyzer. Each position on the filtermat corresponding to one well of the multiplate was measured for 5 min with the [^3H]-counting protocol. The overall counting efficiency was 20%. The IC50 values were calculated with GraphPad Prism 3.0 (GraphPad Software, San Diego, CA, USA) by nonlinear regression analysis. The IC50 values were subsequently transformed into Ki values using the equation of Cheng and Prusoff. All the experiments were carried out in duplicates. Compounds with high S1R affinity were tested in three independent experiments, and their Ki values are given as mean value ± SEM from the three measurements. […] (22.0 Ci/mmol; Perkin-Elmer). […] The nonspecific binding was determined with 10 µM unlabeled (+)-pentazocine.
A general note: Displacement assays read how much labelled ligand stays bound in the presence of the test substance.

The nature of data set [1]: In vitro metabolic stability in mouse liver microsomes. The format is in vitro ADME. As to conditions: oxidative conditions. As for the experimental part:
(§1) The in vitro metabolic stability of compound (R/S)-1d was evaluated in mouse plasma and hepatic microsomes.
Mouse liver microsomes (Sigma Aldrich, CD-1 male, pooled) at 0.5 mg/mL were preincubated with the test compound (R/S)-1d dissolved in DMSO at 1 μM in phosphate buffer 50 mM, pH 7.4, and 3 mM MgCl2 for 10 min at 37 °C [75]. The reaction was then started by adding the cofactor mixture solution (NADP, glucose-6-phosphate, glucose-6-phosphate dehydrogenase in 2% NaHCO3). The samples were taken at 0, 10, 30, 45, and 60 min and added to acetonitrile to stop the reaction (n = 3). The samples were then centrifuged, and the supernatant was analyzed by LC-MS/MS to quantify the amount of compound. A control sample without cofactor was always added to check the chemical stability of the test compound. Two reference compounds of known metabolic stability, 7-ethoxycoumarin (7-EC) and propranolol, were present in parallel testing. A fixed concentration of verapamil was added to every sample as an internal standard for LC-MS/MS analyses. The percentage of the area of the test compound remaining at the various incubation times was calculated with respect to the area of the compound at time 0 min.
The intrinsic clearance (Cli) was calculated by the equation: Cli (μL/min/mg) = k/microsomal conc. × 1000 where k is the rate constant (min^−1) and the microsomal protein conc. = 0.5 mg protein/mL. The rate constant k (min^−1), derived for the exponential decay equation (peak area/IS vs. time), was used to calculate the rate of Cli.
The samples were analyzed under the following conditions: UFLC LC-20 Shimadzu coupled with an API 3200 triple-quadrupole (ABSciex); eluents, (phase A) water + 0.1% trifluoroacetic acid (TFA), (phase B) CH3CN + 0.1% TFA; flow rate, 0.3 mL/min; column, Gemini-Nx 5 μm C18 110A (50 × 2.00 mm) at 35 °C; and injection volume, 5 μL. LC–MS/MS analyses were carried out using an ESI(+) interface in a multiple reaction monitoring mode (MRM). The conditions and MRM transitions applied to the compounds are described in Table 3. […]
On the technique in general: Liver microsomes are a subcellular fraction often used to study metabolism.

Another data set deals with mice. Kind of data set: Formalin-induced licking paw test. The format is in vivo. As to conditions: Mus musculus.
For the next data set, the system named is rats. Kind of data set: Chung's neuropathic pain model (spinal nerve ligation), von Frey mechanical allodynia. Type of data set: in vivo, rat.
Data set [2] can be described thus: In vitro metabolic stability in mouse plasma. Type of data set: in vitro ADME. As to conditions: after 240 min of incubation. As for the experimental part:
as §1

T1 sequence (Q60492 whole entry): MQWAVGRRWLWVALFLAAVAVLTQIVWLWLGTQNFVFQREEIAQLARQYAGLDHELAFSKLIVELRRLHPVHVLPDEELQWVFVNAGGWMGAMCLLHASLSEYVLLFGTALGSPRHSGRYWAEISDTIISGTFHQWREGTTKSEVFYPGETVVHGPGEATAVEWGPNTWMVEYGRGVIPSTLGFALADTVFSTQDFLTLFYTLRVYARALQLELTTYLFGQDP
Protocol for mice: This is a model of persistent pain in which the nociceptive response produced by formalin is quantified by measuring the time spent by the mouse licking the injected paw. The intraplantar administration of formalin (2%, 20 μL) produces a biphasic nocifensive behavioral response (i.e., biting or licking the injected hind paw). The acute nociceptive phase, reflecting the chemical activation of sensory C-fibers, lasts for the first 5 min, while the second inflammatory phase takes place between 20 and 30 min and corresponds with the development of nociceptive sensitization in the dorsal horn of the spinal cord.
ICR male mice weighing 20–25 g (5 weeks old) and SD rats weighing 200–250 g (7 weeks old) were used in the experiments. […]
The formalin-induced licking paw test was modified from the method described by Dubuisson and Dennis [79]. […] Each mouse was then placed in an individual clear plastic observational chamber (15 × 15 × 15), and the pain response was recorded for a period of 30 min. The summation of time (in seconds) spent in licking and biting responses of the injected paw during each 5 min block was measured as an indicator of the pain response. The first period (early phase) was recorded 0–5 min after the injection of formalin, and the second period (late phase) was recorded 20–30 min after the injection. […] The data were expressed as mean values (SEM). […]
Description for rats: This procedure involves the surgical binding or tying off of the left L5 and L6 spinal nerves in rats and causes long-lasting behavioral signs of mechanical allodynia and ongoing pain. Mechanical allodynia refers to the perception of pain caused by normally non-painful stimuli, such as touch or pressure. […] Mechanical stimulation was then induced using von Frey filaments, a set of calibrated nylon fibers that are used to apply mechanical pressure to the skin or other tissues to measure pain sensitivity. The mechanical threshold for pain was established with the “up and down method”.
ICR male mice weighing 20–25 g (5 weeks old) and SD rats weighing 200–250 g (7 weeks old) were used in the experiments. All the animals were purchased from SAMTACO (Osan-si, Korea). Six mice/group and eight rats/group were used for this study. Four groups of mice were utilized for the assessment of the antinociceptive activity in the formalin test (one vehicle and three doses; 1, 10, and 20 mg/kg given i.p.), while five groups of rats were used for the assessment of the antinociceptive activity in Chung’s neuropathic pain model (one vehicle and four doses; 5, 10, 25 and 50 mg/kg given i.p.). The ICR mice and SD rats were maintained on a 12 hr light–dark cycle (light on between 7:00 p.m. and 7:00 a.m.) and allowed free access to food and water. The temperature and humidity of the animal room were maintained at 22 ± 2 °C and 50 ± 5%, respectively. In this study, we followed the national guidelines for conducting animal experiments. […] All efforts were made to minimize animal suffering and reduce the number of animals used.
Ligation of the left L5 and L6 spinal nerves in the rats was used as an experimental model of neuropathic pain. […] The surgical procedure was performed according to the method described by Kim and Chung [80]. The left L5 spinal nerve was isolated and ligated tightly with 6–0 black silk. The wound was closed in anatomical layers, with the skin being closed with stainless steel wound clips. The animals were then allowed to recover after the surgery. The behavioral signs representing neuropathic pain (mechanical allodynia) were examined in all the rats for 2 weeks postoperatively. The mechanical withdrawal threshold to the application of a von Frey filament (Stoelting, Wood Dale, IL, USA) was measured by using the up–down method [81].The most sensitive area was first determined by poking various areas of the paw with a von Frey hair. Next, the actual test was conducted by gently poking various areas of the spot with the filament. […] The frequency of foot withdrawal expressed as a percentage was used as the index of mechanical allodynia. […] The results were calculated using the one-way analysis of variance (ANOVA) followed by Bonferroni’s post hoc test. […]

As for `CN(CCC(CO)c1ccc(-c2ccccc2)cc1)Cc1ccccc1` (stereo not shown) [Compound 1c, 3-([1,1’-biphenyl]-4-yl)-N-benzyl-4-hydroxy-N-methylbutanamine], on S1R, affinity was put at a Ki of 0.95 ± 0.08 nM and the “Selectivity (Ki S2R/Ki S1R)” value is 127.

Consider `OCC(CCN1CCCCC1)c1ccc(-c2ccccc2)cc1` (stereo not shown) [Compound 1d, 2-([1,1’-biphenyl]-4-yl)-4-(piperidin-1-yl)butan-1-ol], for which the half-life at 1 μM in data set [1] (male, CD-1, liver microsomes (pooled), pH 7.4, mouse hepatic microsomes 0.5 mg/mL, 1 μM) was determined as 7.2 ± 0.3 min. For the same compound, the Cli in data set [1] (mouse hepatic microsomes 0.5 mg/mL, 1 μM) turned out to be 192 ± 7 µL/min/mg. Besides, the “in vitro clearance classification” value in data set [1] (mouse hepatic microsomes) was “high clearance”. In addition, the “Selectivity (Ki S2R/Ki S1R)” value on S1R turned out to be 58. Besides, the ED50 with mice (read-out: ED50, first phase of the formalin test) turned out to be 13 mg/kg; with mice (mice, i.p. 1, 10, 20 mg/Kg 30 min before formalin, 20–30 min, paw licking time, read-out: ED50, second phase of the formalin test), 2.17 mg/kg. For the same compound, the “time the antinociceptive effect was extended” value in the data set on rats (i.p. 50 mg/Kg) is listed as “up to 90 min”. The “antinociceptive effect (mechanical allodynia)” value in the data set with rats (i.p. 5 and 10 mg/Kg) is “No significative effect”; in the data set on rats (i.p. 25 and 50 mg/Kg, 30 min after administration) it was “restore the normal nociceptive functionality”. In addition, the “time the antinociceptive effect was sustained” value in the data set on rats (i.p. 25 and 50 mg/Kg) is “up to 60 min”. Further, the compound remaining unaltered entry in data set [2] is “approximately 100%”.
